{
  "source": "patent US6737407B1",
  "about": "“Treatment of obesity” (Metabolic Pharmaceuticals, Ltd., priority 1997, dated 2004)",
  "key": {"acetyl-CoA carboxylase": {"test_system": "acetyl-CoA carboxylase", "experiment": "Acetyl-CoA carboxylase assay in isolated adipocytes and hepatocytes", "assay_type": "cell-based, rat", "procedure": "Acetyl-CoA carboxylase catalyzes the critical step in fatty acid synthesis. The acetyl-CoA carboxylase activities of both isolated adipocytes and hepatocytes in the presence of hGH 177-191 peptide or analogues were measured for the evaluation of the anti-lipogenic effect of the peptides. The acetyl-CoA carboxylase activity was determined by the [C^14]-bicarbonate fixation reaction—the rate of incorporation of acetyl-CoA dependent H[C^14]O3 into [C^14]-malonyl-CoA.\nAdipocytes were prepared with the method described in the HSL assay. Hepatocytes were prepared from the livers of male Wistar rats by collagenase digestion. The liver was finely-cut with scissors and transferred to a 250 ml Erlenmeyer flask containing 30 ml of digestion medium. The digestion medium contained microbial collagenase (Type IV) at a concentration of 30 mg/ml in calcium-free Krebs-Ringer phosphate buffer (pH 7.4) and glucose (5 mM). […]\nThe isolated cells were first preincubated at 37° C. for 30 minutes in a mixture containing 50 mM Tris-HCl buffer (pH 7.5), 10 mM potassium citrate, 10 mM MgCl2, 1 mM dithiothreitol (DTT), and BSA (0.8 mg/ml). […] The [C^14] radioactivity was measured with a liquid scintillation counter. […] Specific activity of the enzyme was expressed as mU/g cell dry weight, where 1 U of acetyl-CoA carboxylase was defined as that amount which catalyzed the carboxylation of 1 μmole acetyl-CoA per minute."}, "C57BL/6J (ob/ob) mice": {"test_system": "C57BL/6J (ob/ob) mice", "experiment": "Plasma triglyceride and total cholesterol in obese mice after 18-day chronic treatment", "assay_type": "in vivo, mouse", "conditions": "for Plasma total cholesterol / Plasma triglyceride: after 18-day treatment", "procedure": "The animals were anaesthetised with sodium pentobarbitone (80 mg/kg body weight) 12 hr after the last dose of hGH 177-191. Blood samples were collected from the tail vein of anaesthetised animals 45 mins after the administration of anaesthetic. After being centrifuged at 2000×g for 5 minutes, plasma was removed from the samples and used for metabolite assays. Triglyceride and total cholesterol in plasma were measured by enzyme-spectrophotometric methods. The reagents are based on either a modified glycerol phosphate oxidase (GPO)-Trinder's type colour reaction^24 or a cholesterol oxidase-4-aminoantipyrine method^25. All assays were performed with the CentrifiChem System 400 (Union Carbide) containing an automated pipetter, a centrifugal analyser and a recording spectrophotometer. Seronorm Lipid (Nycomed Pharma Co., Oslo, Norway) was used as the calibrator."}, "[1]": {"test_system": "Human Subcutaneous adipose Tissue", "experiment": "Lipolytic activity in human subcutaneous adipose tissue", "assay_type": "cell-based", "conditions": "0.5 μM peptide", "procedure": "Adipose tissues were removed from animals and sliced into segments of approximately 200 mg each. Then the tissues were pre-incubated in 25 ml vials containing 2 ml of Krebs-Ringerbicarbonate (KRB) buffer, 4% defatted BSA and 5.5 mM glucose under an atmosphere of carbogen (95%O2/ 5%CO2) at 37° C. for 1 hour. Tissues were then transferred to another vials with fresh medium and the incubation was initiated by adding hGH 177-191 peptide or analogues into the vials. The mixtures were then incubated at 37° C. for 90 minutes. After incubation, the tissues wee removed and aliquots (200 μl) of samples withdrawn from the medium were assayed for the contents of glycerol or free fatty acid (FFA) either by the enzyme assay (glycerol kinase) or calorimetric (copper-dye) spectrometry. The NADH or color produced was then monitored by the absorption at 340 nm and 610 nm, respectively.\nTables 6 and 7 show the in vitro antilipogenic and lipolytic activity of hGH 177-191 and two representative analogues (Ref Nos. 9604 and 9605) on human adipose tissue."}},
  "note": "Where no end group is shown, it is not given here.",
  "data": [
    {"sequence": "LRIVQCRSVEGSCGF (cysteine pairing not given here) [Ref No. 9401]", "values": [
      {"measurement": "effect on acetyl CoA carboxylase (in words)", "setting": "acetyl-CoA carboxylase", "value": "inhibiting"},
      {"measurement": "plasma levels of triglyceride versus control (in words)", "setting": "C57BL/6J (ob/ob) mice; both sexes, ob/ob mice", "value": "did not influence"},
      {"measurement": "plasma levels of cholesterol versus control (in words)", "setting": "C57BL/6J (ob/ob) mice; female ob/ob mice", "value": "only slightly lower"},
      {"measurement": "Plasma total cholesterol", "setting": "C57BL/6J (ob/ob) mice; female ob/ob mice", "value": "2.84 ± 0.29", "unit": "mmol/L"},
      {"measurement": "Plasma triglyceride", "setting": "C57BL/6J (ob/ob) mice; female ob/ob mice", "value": "0.38 ± 0.11", "unit": "mmol/L"},
      {"measurement": "Plasma triglyceride", "setting": "C57BL/6J (ob/ob) mice; male ob/ob mice", "value": "0.58 ± 0.16", "unit": "mmol/L"},
      {"measurement": "Plasma total cholesterol", "setting": "C57BL/6J (ob/ob) mice; male ob/ob mice, listed as hGH 177-191", "value": "3.52 ± 0.39", "unit": "mmol/L"},
      {"measurement": "Glycerol released", "setting": "[1]", "value": "1000 ± 80", "unit": "nmol/mg tissue/hour"}
    ]}
  ]
}
